# From patent publication US12702671B2, “Calcineurin inhibitors of the setron family for the treatment of hearing loss” (SENSORION, priority 2015, dated 2026)
# Entries after “also recorded” stand apart in the source; their conditions may differ.
# What was measured:
# [1] = test system: acoustic trauma induced hearing loss; assay: Auditory brainstem response (ABR) thresholds after acoustic trauma; assay type: in vivo, Wistar rats
# Description: (§1) All experiments were performed using 7 week old male Wistar rats (CERJ, Le Genest, France) in accordance with the French Ministry of Agriculture regulations and European Community Council Directive no. 86/609/EEC, OJL 358. The rats were fed a standard diet ad libitum and maintained on a 12 h light-dark cycle.
# (§2) Auditory Brainstem Reponses (ABR) and Distortion Product Otoacoustic Emissions (DPOAE) were recording using a RZ6 Auditory Workstation (Tucker-Davis Technologies, Alachua, FL, USA) with animals deeply anesthetized using 90 mg/kg ketamine and 10 mg/kg xylazine and placed on a 35° C. recirculating heating pad inside a sound attenuating cubicle (Med Associates Inc., St. Albans, VT, USA) throughout the experiment.
# For ABR recordings, three stainless steel needle electrodes were placed subdermally over the vertex, the right mastoid and right hind leg of each animal. Tone-pips (5 msec duration presented at a rate of 21/s) at 8, 16 and 24 kHz were delivered to the right ear using a calibrated MF-1 speaker in closed-field configuration (Tucker-Davis Technologies, Alachua, FL, USA) at attenuating intensity until no reproducible response could be recorded. Close to the ABR threshold, the responses to 1000 acoustic stimuli in 5 dB steps were averaged. Responses were low-pass filtered at 3 kHz.
# (§3) Animals were exposed to 121 dB octave band noise (8-16 kHz) for 2 h in groups of 4 rats, placed in individual compartments of a custom built circular cage placed on a 30 cm diameter platform rotating at 3 turns/minute (Aqila Innovation, Valbonne, France). The calibrated octave band noise generated by the RZ6 SigGen software was further amplified by a Crown D-75 amplifier in bridge mode (Crown Audio, Elkhart, IN, USA) and delivered by four Beyma CP16 compression tweeters (Acustica Beyma S. L., Moncada, Valencia, Spain) positioned 39 cm above the rotating platform, each 10 cm from the platform center.
# (§4) Animals were treated by intraperitoneal injection daily for 14 days beginning immediately after acoustic trauma induction and subsequently repeated every 24 hours. The setron compounds granisetron HCl, ondansetron HCl, tropisetron HCl and azasetron HCl (Tocris Bioscience, Bristol, UK) were delivered dissolved in saline solution (1.6 mL/kg) while Tacrolimus (Selleck Chemicals, Houston, TX, USA) was dissolved in solution composed of 10% ethanol-100%/10% Kolliphor EL/1% Tween 80/79% saline (1.0 mL/kg). Placebo treated animals received injections of 1.6 mL/kg saline following the same treatment schedule.
# (§5) Statistical analysis was performed using two-way ANOVA (Audiometry data: frequency and treatment group. Cochleograms: normalized distance from apex and treatment group) followed by Holm-Sidak post-hoc test for multiple comparisons. Results are given as mean±SEM and a p value less than or equal to 0.05 considered significant.
# (§6) Baseline line audiometry (ABR and DPOAE measures) was performed for each animal 3 days before acoustic trauma was induced. Subsequently, audiometry measures were repeated 24 h and 14 days after acoustic trauma.
# (§7) To quantify and compare the difference in treatment effects between groups while taking into account individual baseline and trauma variability, the hearing loss (ABR threshold shift & DPOAE amplitude loss) at D14 relative to baseline, as well as the functional recovery of hearing from 24 h to D14 (ABR threshold shift & DPOAE amplitude loss) were determined for all treatment groups.
# [2] = test system: acoustic trauma induced hearing loss; assay: Distortion product otoacoustic emissions (DPOAE) amplitudes after acoustic trauma; assay type: in vivo, Wistar rats; conditions: i.p. daily for 14 days after acoustic trauma; same doses as E4
# Description: as §1, §2
# DPOAEs were recorded and using ER10B+ Low Noise DPOAE microphone (Etymotic Research, Inc., Elk Grove Village, IL, USA) with acoustic stimuli delivered by two calibrated MF-1 speakers in closed-field configuration (Tucker-Davis Technologies, Alachua, FL, USA). DPOAEs were recorded at fixed stimulus levels (L1=L2=70 dB SPL), with an f2/f1 ratio of 1.2. Responses were recorded at 4, 8, 16, 24 and 32 kHz.
# as §3, §4, §5, §6, §7
# outer hair cells = assay: Outer hair cell loss (cytocochleograms) in cochleae fixed at D14 after acoustic trauma; assay type: in vivo, Wistar rats; conditions: cochleae fixed after audiometry on day 14
# Description: as §3, §4
# After audiometry on day 14, animals were deeply anaesthetized with an intraperitoneal injection of pentobarbital (100 mg/kg). The cochleae were removed, fixed with 4% paraformaldehyde, pH 7.4, decalcified with 10% EDTA, pH 7.4 and then stained with myosin VIIa 1/1000. […] The mean loss of OHCs per group was subsequently calculated as a function of normalized distance from the apex in bins of 2.5% of the total length, using the total length of each histological specimen. Cell counts could reliably be obtained for up to 90% of the total distance from the apex (corresponding to the tonotopic region up to from 0 kHz to ~50 kHz in rat, Viberg & Canlon 2004), while the last 10% was too variable due to damage incurred during dissection.
# as §5
# To further support the conclusions from the functional audiometry data, the loss of outer hair cells in four treatment group was determined by constructing cytocochleograms from histological preparations of cochleae fixed after audiometry on day 14.
# [3] = Animal deaths during 14-day repeated treatment in the acoustic trauma study; assay type: in vivo, Wistar rats; conditions: Tacrolimus 1.5 mg/kg i.p. daily for 14 days
# Description: as §1, §4, §6
# FIGS. 2 & 3 illustrate the audiometry measures (ABR thresholds and DPOAE amplitudes) determined for all treatment groups at baseline, 24 h and 14 days after acoustic trauma. For ABR thresholds exceeding 90 dB, a maximal value of 95 dB was attributed. […]
# [4] = test system: noise-induced hearing loss; conditions: Uemaetomari et al. 2005; Bas et al. 2009; cited from earlier work
structure (smiles),measurement,setting,value
C=CC[C@@H]1/C=C(\C)C[C@H](C)C[C@H](OC)[C@H]2O[C@@](O)(C(=O)C(=O)N3CCCC[C@H]3C(=O)O[C@H](/C(C)=C/[C@@H]3CC[C@@H](O)[C@H](OC)C3)[C@H](C)[C@@H](O)CC1=O)[C@H](C)C[C@@H]2OC [tacrolimus],hearing outcomes (ABR thresholds and DPOAE amplitudes) at 14 days after acoustic trauma compared to placebo,"[1]; i.p. daily for 14 days after acoustic trauma, same doses as E4",improvement at some frequencies
same,ABR threshold shift from baseline to day 14 compared to placebo,"[1]; i.p. daily for 14 days from immediately after 121 dB trauma, azasetron HCl 4.22, ondansetron HCl 4, tropisetron HCl 3.5, granisetron HCl 3.8, Tacrolimus 1.5 mg/kg",no major effect
same,DPOAE amplitude loss from baseline to day 14 compared to placebo,[2],trend towards reduced loss of DPOAE amplitude; also recorded: trends towards improving DPOAE amplitude loss at some frequencies
same,recovery of DPOAE amplitudes from 24 h post trauma to day 14 compared to placebo,[2],improved recovery
same,mean loss of outer hair cells compared to placebo,outer hair cells,Neither the granisetron HCl nor the tacrolimus treated groups were significantly different from placebo
same,animals that died between treatment initiation and end of the study,[3],5 animals out of 11
same,effect on hearing loss in pre-clinical models of noise-induced hearing loss,[4],reduce hearing loss
